Data on 16 compounds can be found in patent publication EP3720857B1, “2-OXO-5H-CHROMENO[4,3-B]PYRIDINES FOR USE IN THE TREATMENT OF HEPATITIS B” (Galapagos NV, priority 2017, dated 2019).

The test concerns hepatitis virus B (HBV) infection. Briefly: HepG2 NTCP assay (HBcAg staining as marker of HBV infection). The test is classed as cell-based. The following applies: HepG2-NTCP cells infected with HBV, HBV core antigen (HBcAg) as marker of infection. The source says:
The principle of the hepG2-NTCP assay is to measure the effect of a test compound on the inhibition of the hepatitis virus B (HBV) infection compared to a reference compound. To be able to infect the hepatocellular carcinoma cells (HepG2) with HBV, HepG2 cells were stably transfected with the Na+-taurocholate co-transporting polypeptide (NTCP) receptor, also referred to as Sodium/bile acid cotransporter (SLC10A1), which is necessary for HBV infection. In this assay the HBV core antigen (HBcAg) is used as a marker of HBV infection. Nuclei count is used as an indication for compound toxicity.
On day one, HepG2-NTCP cells ((Ni et al., 2014)) are seeded at 5000 cells in 50 µL per well in assay medium (DMEM high glucose supplemented with 10% non-heat inactivated (non HI) fetal bovine serum (FBS), 1% P/S, 1% L-glutamine and 1% MEM NEAA) in 384 well plate and incubated at 37°C, 5% CO2 overnight.
Compounds are prepared as 10 point serial dilutions using 1/3 dilution steps in 100% DMSO starting from 10 mM highest concentration, unless otherwise requested for very potent compounds, which started from 5mM or 1mM stock. Compounds are further diluted 1/500 in assay medium.
A negative control (vehicle: 24 wells with 0.2% DMSO) and positive control (24 wells with 100nM Myrcludex B (Cas no.: 406461-66-3), 0.2% DMSO and in 10 point DR) are included in the experiments.
On the second day, 40µl medium is removed from the cells with the plate washer (Select 405 microplate washer, Biotek). 15 µL of diluted compound series is transferred to the assay plate and cells are infected with 15 µL of HBV mix (HBV virus, 4%PEG, 1%DMSO in assay medium). The infection is performed in assay medium containing final concentration of 1% DMSO. The assay plate is incubated at 37°C, 5% CO2 overnight.
The next day, 30µl compound and HBV mix are removed from the assay plate with the plate washer and 30 µL of compound series diluted 1/500 in assay medium containing final concentration of 2.5% DMSO is added to the cell assay plate. The assay plate is incubated at 37°C, 5% CO2 for 5 days.
After 5 days of incubation, supernatant is removed from the cells with the plate washer. Cells are fixed with 50 µL of 3.7% formaldehyde added with the Well mate (Matrix technologies) and incubated for 30 min at room temperature. After fixation, cells are washed four times with phosphate buffer saline (1xPBS, 137mM NaCl, 10mM na2HPO4, 2.7mM KCl, 1.8mM KH2PO4 at pH7.4). The cells are finally subjected to HBc staining.
First, the assay plate is blocked with blocking buffer (2%FBS, 3% BSA, 0.2% TritonX100 in PBS) for 1 h at room temperature (optional to block overnight at 4°C).
After 4 washes of PBST (1XPBS + 0.05% Tween) with the plate washer, the assay plate is incubated with 30 µL diluted primary antibody (1/700 Rabbit anti-HBV core antigen, Dako, B0586 or 1/350 Rabbit anti HBV core antigen, Invitrogen, PA516368) in blocking buffer and incubated for 90 min at room temperature.
After 4 washes of PBST with the plate washer, the assay plate is incubated with 50 µL of secondary antibody (Donkey-anti-rabbit Alexa 488 antibody, Lifetechnologies A21206) 1/500 diluted in blocking buffer and incubated for 60 min at room temperature and in the dark.
The assay plate is washed 4 times with PBST on the plate washer and incubated with 50µL of DAPI (Sigma D9542, stock 5mg/mL) 1/10000 diluted in PBS for 15-30 min at room temperature and in the dark. The assay plate is now ready for read out on the InCell Analyzer 2200 (GE Healthcare).
Raw data are generated following read-out performed on InCell 2200 and are imported into the galapagos LIMS for automated calculation of percentage inhibition (PIN) and toxicity by nuclei count, using the control wells mentioned above, and creation of Dose Response curves. Table V. Hepg2 NTCP assay activity of illustrative compounds of the invention
The compound `[2H]C([2H])([2H])Oc1cc2c(cc1Cl)-c1c(cc(C(=O)O)c(=O)n1C1CC1)C(C1(C)COC1)O2` (stereo not shown) [Compound 58, 9-chloro-1-cyclopropyl-5-(3-methyloxetan-3-yl)-2-oxo-8-(trideuteriomethoxy)-5H-chromeno[4,3-b]pyridine-3-carboxylic acid] yielded an IC50 of 0.001 to 1 nM.
With `O=C(O)c1cc2c(n(C3CC3)c1=O)-c1cc(F)c(F)cc1OC2` [Compound 59, 1-cyclopropyl-8,9-difluoro-2-oxo-5H-chromeno[4,3-b]pyridine-3-carboxylic acid], the IC50 is > 100 nM.
For the compound `O=C(O)c1cc2c(n(C3CC3)c1=O)-c1cc(Cl)c(F)cc1OC2` [Compound 60, 9-chloro-1-cyclopropyl-8-fluoro-2-oxo-5H-chromeno[4,3-b]pyridine-3-carboxylic acid], the IC50 is > 100 nM.
As for `O=C(O)c1cc2c(n(C3CC3)c1=O)-c1cc(Cl)c(Cl)cc1OC2` [Compound 61, 8,9-dichloro-1-cyclopropyl-2-oxo-5H-chromeno[4,3-b]pyridine-3-carboxylic acid], the half-inhibitory concentration (IC50) is 1 to 20 nM.
Turning to `COCCCOc1cc2c(cc1C(F)(F)F)-c1c(cc(C(=O)O)c(=O)n1C1CC1)C(C(C)C)O2` (stereo not shown) [Compound 62, 1-cyclopropyl-5-isopropyl-8-(3-methoxypropoxy) -2-oxo-9-(trifluoromethyl)-5H-chromeno[4,3-b]pyridine-3-carboxylic acid], the IC50 lay in the range of 0.001 to 1 nM.
The compound `COCCCOc1cc2c(cc1S(C)(=O)=O)-c1c(cc(C(=O)O)c(=O)n1C1CC1)C(C(C)C)O2` (stereo not shown) [Compound 63, 1-cyclopropyl-5-isopropyl-8-(3-methoxypropoxy) -9-methylsulfonyl-2-oxo-5H-chromeno[4,3-b]pyridine-3-carboxylic acid] came in with an IC50 of 1 to 20 nM.
`CC(C)C1Oc2cc(OCC3COC3)c(F)cc2-c2c1cc(C(=O)O)c(=O)n2C1CC1` (stereo not shown) [Compound 64, 1-cyclopropyl-9-fluoro-5-isopropyl-8-(oxetan-3-ylmethoxy)-2-oxo-5H-chromeno[4,3-b]pyridine-3-carboxylic acid]: the IC50 was in the range of 1 to 20 nM.
In turn, `CC(C)C1Oc2cc(OCC3(C)COC3)c(F)cc2-c2c1cc(C(=O)O)c(=O)n2C1CC1` (stereo not shown) [Compound 65, 1-cyclopropyl-9-fluoro-5-isopropyl-8-[(3-methyloxetan-3-yl)methoxy]-2-oxo-5H-chromeno[4,3-b]pyridine-3-carboxylic acid] registered an IC50 of 0.001 to 1 nM.
Consider `COc1cc2c(cc1Cl)-c1c(cc(C(=O)O)c(=O)n1C1CC1)[C@@H](C1(C)COC1)O2` [Compound 66, (5S)-9-chloro-1-cyclopropyl-8-methoxy-5-(3-methyloxetan-3-yl)-2-oxo-5H-chromeno[4,3-b]pyridine-3-carboxylic acid], for which the IC50 was 1 to 20 nM.
As for `COc1cc2c(cc1Cl)-c1c(cc(C(=O)O)c(=O)n1C1CC1)[C@H](C1(C)COC1)O2` [Compound 67, (5R)-9-chloro-1-cyclopropyl-8-methoxy-5-(3-methyloxetan-3-yl)-2-oxo-5H-chromeno[4,3-b]pyridine-3-carboxylic acid], the figure is 0.001 to 1 nM; as for `CC1(C2Oc3cc(OCC(F)(F)F)c(Cl)cc3-c3c2cc(C(=O)O)c(=O)n3C2CC2)COC1` (stereo not shown) [Compound 68, 9-chloro-1-cyclopropyl-5-(3-methyloxetan-3-yl)-2-oxo-8-(2,2,2-trifluoroethoxy)-5H-chromeno[4,3-b]pyridine-3-carboxylic acid], 0.001 to 1 nM; as for `CC1(C2Oc3cc(OC[C@H]4COCCO4)c(Cl)cc3-c3c2cc(C(=O)O)c(=O)n3C2CC2)COC1` (stereo partly drawn) [Compound 69, 9-chloro-1-cyclopropyl-8-[[(2R)-1,4-dioxan-2-yl]methoxy]-5-(3-methyloxetan-3-yl)-2-oxo-5H-chromeno[4,3-b]pyridine-3-carboxylic acid], 0.001 to 1 nM.
As to `CC1(C2Oc3cc(OC(F)F)c(Cl)cc3-c3c2cc(C(=O)O)c(=O)n3C2CC2)COC1` (stereo not shown) [Compound 70, 9-chloro-1-cyclopropyl-8-(difluoromethoxy)-5-(3-methyloxetan-3-yl)-2-oxo-5H-chromeno[4,3-b]pyridine-3-carboxylic acid], the IC50 lay in the range of 1 to 20 nM.
As to `COCCCOc1cc2c(cc1Br)-c1c(cc(C(=O)O)c(=O)n1C1CC1)C(C(C)C)O2` (stereo not shown) [Compound 71, 9-bromo-1-cyclopropyl-5-isopropyl-8-(3-methoxypropoxy) -2-oxo-5H-chromeno[4,3-b]pyridine-3-carboxylic acid], the IC50 was in the range of 0.001 to 1 nM.
As for `CC1(C2Oc3cc(OCC4CN(S(C)(=O)=O)C4)c(Cl)cc3-c3c2cc(C(=O)O)c(=O)n3C2CC2)COC1` (stereo not shown) [Compound 72, 9-chloro-1-cyclopropyl-5-(3-methyloxetan-3-yl)-8-[(1-methylsulfonylazetidin-3-yl)methoxy]-2-oxo-5H-chromeno[4,3-b]pyridine-3-carboxylic acid], the figure is 1 to 20 nM; as for `COc1cc2c(cc1OC)-c1c(cc(C(=O)O)c(=O)n1C1CC1)C(CSC)O2` (stereo not shown) [Compound 74, 1-cyclopropyl-8,9-dimethoxy-5-(methylsulfanylmethyl)-2-oxo-5H-chromeno[4,3-b]pyridine-3-carboxylic acid], > 100 nM.
